{"source": "paper PMC10394672", "about": "“Crystal structure of dihydrofolate reductase from the emerging pathogenic fungus Candida auris” (Acta Crystallographica. Section D, Structural Biology, 2023)", "key": {"[1]": {"target": "T1, dihydrofolate reductase (CauDHFR) (Candidozyma auris, UniProt A0A0L0P1H8)", "T1 construct": "gene QG37_02791; His-tag-removed CauDHFR", "T1 sequence (A0A0L0P1H8 1-204)": "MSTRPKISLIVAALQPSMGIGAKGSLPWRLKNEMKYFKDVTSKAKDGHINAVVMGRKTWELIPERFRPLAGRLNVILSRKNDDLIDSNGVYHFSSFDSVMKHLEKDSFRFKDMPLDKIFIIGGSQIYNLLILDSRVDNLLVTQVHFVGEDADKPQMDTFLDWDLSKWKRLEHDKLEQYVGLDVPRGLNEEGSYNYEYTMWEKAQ", "experiment": "([…] Å); DSF shift +[…] °C; NADPH-consumption IC50", "type": "biochemical"}, "[2]": {"system": "T2, C. albicans", "T2 construct": "SC 5314", "experiment": "microbe, parasite or virus in culture", "design": "species or system Candida yeast", "details": "Candida albicans, 24 h, 50% growth inhibition end point", "method": "(§1) The antifungal activity of DHFR inhibitors was evaluated against C. albicans (SC 5314), C. glabrata (ATCC 2001) and C. auris (CBS 12766) by the broth microdilution technique (CLSI, 2017[▸]). DHFR inhibitors were serially diluted (1:2) in RPMI 1640 medium buffered with 0.165 M 3-(N-morpholino)propanesulfonic acid in 96-well flat-bottom plates and yeast suspension was added to the wells to obtain a final yeast concentration of 0.5–2.5 × 10^3 CFU ml^−1 and final concentrations of DHFR inhibitors in the range 1–500 µg ml^−1. […] Studies were then performed against Candida spp. yeasts, with the addition of two more antifolates: diaveridine (DIA) and pemetrexed (PMX) (Supplementary Table S1). The inhibitory effect of these inhibitors on the fungal growth of C. albicans, C. glabrata and C. auris was tested using the broth microdilution assay. […] (Supplementary Table S1), including C. auris, supporting the lack of affinity seen in the IC50 assay (Table 2 ▸)."}, "[3]": {"system": "T3, C. auris", "T3 construct": "CBS 12766", "experiment": "microbe, parasite or virus in culture", "design": "species or system Candida yeast", "details": "Candidozyma auris, 24 h, 50% growth inhibition end point", "method": "as §1"}, "[4]": {"system": "T4, C. glabrata", "T4 construct": "ATCC 2001", "experiment": "microbe, parasite or virus in culture", "design": "species or system Candida yeast", "details": "Nakaseomyces glabratus, 24 h, 50% growth inhibition end point", "method": "as §1"}}, "note": "Where two headings read alike, the source gives them in different places.", "data": [{"smiles": "CC1(C)N=C(N)N=C(N)N1c1ccc(Cl)cc1", "note": "[CYG, cycloguanil]", "values": [{"measurement": "IC50", "setting": "[1]", "value": 401, "unit": "µM"}, {"measurement": "MIC", "setting": "[2]; read-out: MIC cycloguanil", "value": 500, "unit": "µg/mL"}, {"measurement": "MIC", "setting": "[3]; read-out: MIC cycloguanil", "value": "> 500", "unit": "µg/mL"}, {"measurement": "MIC", "setting": "[4]; read-out: MIC cycloguanil", "value": 500, "unit": "µg/mL"}]}, {"smiles": "CN(Cc1cnc2nc(N)nc(N)c2n1)c1ccc(C(=O)N[C@@H](CCC(=O)O)C(=O)O)cc1", "note": "[MTX, methotrexate]", "values": [{"measurement": "MIC", "setting": "[2]; read-out: MIC methotrexate", "value": 250, "unit": "µg/mL"}, {"measurement": "MIC", "setting": "[3]; read-out: MIC methotrexate", "value": "> 500", "unit": "µg/mL"}, {"measurement": "MIC", "setting": "[4]; read-out: MIC methotrexate", "value": "> 500", "unit": "µg/mL"}]}, {"smiles": "CCc1nc(N)nc(N)c1-c1ccc(Cl)cc1", "note": "[PYR, pyrimethamine]", "values": [{"measurement": "MIC", "setting": "[2]; read-out: MIC pyrimethamine", "value": 62.5, "unit": "µg/mL"}, {"measurement": "MIC", "setting": "[3]; read-out: MIC pyrimethamine", "value": 125, "unit": "µg/mL"}, {"measurement": "MIC", "setting": "[4]; read-out: MIC pyrimethamine", "value": 62.5, "unit": "µg/mL"}]}, {"smiles": "COc1cc(Cc2cnc(N)nc2N)cc(OC)c1OC", "note": "[TMP, trimethoprim]", "values": [{"measurement": "MIC", "setting": "[2]; read-out: MIC trimethoprim", "value": 500, "unit": "µg/mL"}, {"measurement": "MIC", "setting": "[3]; read-out: MIC trimethoprim", "value": "> 500", "unit": "µg/mL"}, {"measurement": "MIC", "setting": "[4]; read-out: MIC trimethoprim", "value": 500, "unit": "µg/mL"}]}, {"smiles": "COc1ccc(Cc2cnc(N)nc2N)cc1OC", "note": "[diaveridine]", "values": [{"measurement": "MIC", "setting": "[2]; read-out: MIC diaveridine", "value": "> 500", "unit": "µg/mL"}, {"measurement": "MIC", "setting": "[3]; read-out: MIC diaveridine", "value": "> 500", "unit": "µg/mL"}, {"measurement": "MIC", "setting": "[4]; read-out: MIC diaveridine", "value": 500, "unit": "µg/mL"}]}, {"smiles": "Nc1nc2[nH]cc(CCc3ccc(C(=O)N[C@@H](CCC(=O)O)C(=O)O)cc3)c2c(=O)[nH]1", "note": "[pemetrexed]", "values": [{"measurement": "MIC", "setting": "[2]; read-out: MIC pemetrexed", "value": 500, "unit": "µg/mL"}, {"measurement": "MIC", "setting": "[3]; read-out: MIC pemetrexed", "value": "> 500", "unit": "µg/mL"}, {"measurement": "MIC", "setting": "[4]; read-out: MIC pemetrexed", "value": 500, "unit": "µg/mL"}]}]}
